From patent publication US20250230155A1 (Vanderbilt University, priority 2021, published 2025)

Biological target: T1, human mAChR M4 (Homo sapiens, UniProt P08173)
T1 construct: expressed in transfected cells
T1 sequence (P08173 1-479): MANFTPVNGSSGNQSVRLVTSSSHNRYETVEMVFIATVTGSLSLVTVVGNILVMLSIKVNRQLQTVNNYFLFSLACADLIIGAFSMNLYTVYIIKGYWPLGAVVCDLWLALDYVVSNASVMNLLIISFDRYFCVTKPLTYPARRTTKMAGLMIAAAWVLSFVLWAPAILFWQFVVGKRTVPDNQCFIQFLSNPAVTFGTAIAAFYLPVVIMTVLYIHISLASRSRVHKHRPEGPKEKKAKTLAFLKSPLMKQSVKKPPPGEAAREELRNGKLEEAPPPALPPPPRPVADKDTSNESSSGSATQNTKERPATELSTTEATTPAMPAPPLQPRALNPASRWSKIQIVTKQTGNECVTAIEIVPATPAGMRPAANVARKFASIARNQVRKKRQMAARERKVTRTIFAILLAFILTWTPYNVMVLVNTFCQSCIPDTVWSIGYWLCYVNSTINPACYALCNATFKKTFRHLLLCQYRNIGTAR
Test: mAChR M4 cell-based functional assay (calcium mobilization, CHO-K1 hM4-Gqi5 cells)
Settings: for Emax at 30 µM: CHO-K1, % ACh maximum at 30 μM, human M4; for EC50: positive allosteric modulator activity, increase in the EC20 acetylcholine response, CHO-K1 hM4-Gqi5 cells, read-out: Human M4 EC50
How it was run: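 CHO-K1 cells stably expressing human M4 with chimeric Gqi5, loaded with Fluo-4 AM; compounds given as 11-point 1:3 curves and calcium flux read on FDSS at 1 Hz. Acetylcholine EC20 added at 144 s, EC80 at 230 s; agonist, PAM (EC20 potentiation) and antagonist (EC80 inhibition) EC50/Emax from four-parameter fits.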

Compound: Cc1cc(C#N)nnc1N1CCc2ncc(Oc3cc(F)ccc3F)cc2C1 [Example 357, 6-(3-(2,5-difluorophenoxy)-7,8-dihydro-1,6-naphthyridin-6(5H)-yl)-5-methylpyridazine-3-carbonitrile]
- Emax at 30 µM: 84%
- EC50: 0.127 µM

Compound: Cc1ccc(Oc2cnc3c(c2)CN(c2nnc(C#N)c(C)c2C)CC3)c(F)c1 [Example 358, 6-(3-(2-fluoro-4-methylphenoxy)-7,8-dihydro-1,6-naphthyridin-6(5H)-yl)-4,5-dimethylpyridazine-3-carbonitrile]
- Emax at 30 µM: 82%
- EC50: 0.32 µM

Compound: Cc1cc(C#N)cnc1N1CCc2ncc(N3CCC(C(F)(F)F)n4nccc43)cc2C1 (stereo not drawn) [Example 359, 5-methyl-6-(3-(7-(trifluoromethyl)-6,7-dihydropyrazolo[1,5-a]pyrimidin-4(5H)-yl)-7,8-dihydro-1,6-naphthyridin-6(5H)-yl)nicotinonitrile]
- Emax at 30 µM: 120%
- EC50: 0.472 µM

Compound: Cc1cc(C#N)nnc1N1CCc2ncc(N3CCCn4nccc43)cc2C1 [Example 360, 6-(3-(6,7-dihydropyrazolo[1,5-a]pyrimidin-4(5H)-yl)-7,8-dihydro-1,6-naphthyridin-6(5H)-yl)-5-methylpyridazine-3-carbonitrile]
- Emax at 30 µM: 129%
- EC50: 0.088 µM

Compound: Cc1cc(C#N)nnc1N1CCc2ncc(-c3cnn(C4CC4)c3)cc2C1 [Example 361, 6-(3-(1-cyclopropyl-1H-pyrazol-4-yl)-7,8-dihydro-1,6-naphthyridin-6(5H)-yl)-5-methylpyridazine-3-carbonitrile]
- Emax at 30 µM: 115%
- EC50: 0.786 µM

Compound: Cc1cc(C#N)cnc1N1CCc2ncc(N3CCCc4ncccc43)cc2C1 [Example 362, 6-(3-(3,4-dihydro-1,5-naphthyridin-1(2H)-yl)-7,8-dihydro-1,6-naphthyridin-6(5H)-yl)-5-methylnicotinonitrile]
- Emax at 30 µM: 96%
- EC50: 0.076 µM

Compound: Cc1cc2n(n1)CCCN2c1cnc2c(c1)CN(c1nnc(C#N)c(C)c1C)CC2 [Example 363, 4,5-dimethyl-6-(3-(2-methyl-6,7-dihydropyrazolo[1,5-a]pyrimidin-4(5H)-yl)-7,8-dihydro-1,6-naphthyridin-6(5H)-yl)pyridazine-3-carbonitrile]
- Emax at 30 µM: 90%
- EC50: 0.148 µM

Compound: Cc1c(C#N)nnc(N2CCc3ncc(N4CCC(C)n5nccc54)cc3C2)c1C (stereo not drawn) [Example 364, 4,5-dimethyl-6-(3-(7-methyl-6,7-dihydropyrazolo[1,5-a]pyrimidin-4(5H)-yl)-7,8-dihydro-1,6-naphthyridin-6(5H)-yl)pyridazine-3-carbonitrile]
- Emax at 30 µM: 98%
- EC50: 0.321 µM

Compound: Cc1cc(C#N)cnc1N1CCc2ncc(Cc3ccccc3F)cc2C1 [Example 365, 6-(3-(2-fluorobenzyl)-7,8-dihydro-1,6-naphthyridin-6(5H)-yl)-5-methylnicotinonitrile]
- Emax at 30 µM: 89%
- EC50: 0.358 µM

Compound: Cc1cc(C#N)cnc1N1Cc2cc(C(F)(F)F)cnc2CC1C (stereo not drawn) [Example 366, 5-methyl-6-(7-methyl-3-(trifluoromethyl)-7,8-dihydro-1,6-naphthyridin-6(5H)-yl)nicotinonitrile]
- Emax at 30 µM: 96%
- EC50: 0.305 µM

Compound: Cc1c(C#N)nnc(N2Cc3cc(C(F)(F)F)cnc3CC2C)c1C (stereo not drawn) [Example 367, 4,5-dimethyl-6-(7-methyl-3-(trifluoromethyl)-7,8-dihydro-1,6-naphthyridin-6(5H)-yl)pyridazine-3-carbonitrile]
- Emax at 30 µM: 89%
- EC50: 0.209 µM

Compound: Cc1ccc(F)c(Oc2cnc3c(c2)CN(c2ncc(C#N)cc2C)CC3)c1 [Example 368, 6-(3-(2-fluoro-5-methylphenoxy)-7,8-dihydro-1,6-naphthyridin-6(5H)-yl)-5-methylnicotinonitrile]
- Emax at 30 µM: 94%
- EC50: 1.7 µM

Compound: Cc1c(C#N)nnc(N2CCc3ncc(Cc4ccccc4F)cc3C2)c1C [Example 369, 6-(3-(2-fluorobenzyl)-7,8-dihydro-1,6-naphthyridin-6(5H)-yl)-4,5-dimethylpyridazine-3-carbonitrile]
- Emax at 30 µM: 63%
- EC50: 0.424 µM

Compound: Cc1cc(C#N)cnc1N1CCc2ncc(N3CCOC(C)(C)C3)cc2C1 [Example 370, 6-(3-(2,2-dimethylmorpholino)-7,8-dihydro-1,6-naphthyridin-6(5H)-yl)-5-methylnicotinonitrile]
- Emax at 30 µM: 82%
- EC50: 0.081 µM

Compound: COc1nc(N2CCc3ncc(C(F)(F)F)cc3C2)c(C)cc1C#N [Example 371, 2-methoxy-5-methyl-6-(3-(trifluoromethyl)-7,8-dihydro-1,6-naphthyridin-6(5H)-yl)nicotinonitrile]
- Emax at 30 µM: 75%
- EC50: 4.35 µM

Compound: Cc1cc(C#N)c(-c2cccn2C)nc1N1CCc2ncc(C(F)(F)F)cc2C1 [Example 372, 5-methyl-2-(1-methyl-1H-pyrrol-2-yl)-6-(3-(trifluoromethyl)-7,8-dihydro-1,6-naphthyridin-6(5H)-yl)nicotinonitrile]
- Emax at 30 µM: 55%
- EC50: 5.8 µM

Compound: CCOc1nc(N2CCc3ncc(C(F)(F)F)cc3C2)c(C)cc1C#N [Example 373, 2-ethoxy-5-methyl-6-(3-(trifluoromethyl)-7,8-dihydro-1,6-naphthyridin-6(5H)-yl)nicotinonitrile]
- Emax at 30 µM: 64%
- EC50: 1.74 µM

Compound: Cc1c(C#N)nnc(N2CCc3ncc(N4CC(C)Cn5nccc54)cc3C2)c1C (stereo not drawn) [Example 374, 4,5-dimethyl-6-(3-(6-methyl-6,7-dihydropyrazolo[1,5-a]pyrimidin-4(5H)-yl)-7,8-dihydro-1,6-naphthyridin-6(5H)-yl)pyridazine-3-carbonitrile]
- Emax at 30 µM: 96%
- EC50: 0.248 µM

Compound: Cc1cc(C#N)cnc1N1CCc2ncc(N3CCO[C@H](c4ccccc4)C3)cc2C1 [Example 375, (R)-5-methyl-6-(3-(2-phenylmorpholino)-7,8-dihydro-1,6-naphthyridin-6(5H)-yl)nicotinonitrile]
- Emax at 30 µM: 85%
- EC50: 1.32 µM

Compound: Cc1c(C#N)nnc(N2CCc3ncc(N4CCO[C@H](c5ccccc5)C4)cc3C2)c1C [Example 376, (R)-4,5-dimethyl-6-(3-(2-phenylmorpholino)-7,8-dihydro-1,6-naphthyridin-6(5H)-yl)pyridazine-3-carbonitrile]
- Emax at 30 µM: 90%
- EC50: 1.38 µM

Compound: Cc1cc(C#N)cnc1N1CCc2nc(C)c(N3CCOC(C)(C)C3)cc2C1 [Example 377, 6-(3-(2,2-dimethylmorpholino)-2-methyl-7,8-dihydro-1,6-naphthyridin-6(5H)-yl)-5-methylnicotinonitrile]
- Emax (CHO-K1): 76%
- EC50: 0.76 µM

Compound: Cc1cc(C#N)cnc1N1CCc2ncc(N3CCO[C@@H](c4ccccc4)C3)cc2C1 [Example 378, (S)-5-methyl-6-(3-(2-phenylmorpholino)-7,8-dihydro-1,6-naphthyridin-6(5H)-yl)nicotinonitrile]
- Emax at 30 µM: 62%
- EC50: 4.31 µM

Compound: Cc1c(C#N)nnc(N2CCc3ncc(N4CCO[C@@H](c5ccccc5)C4)cc3C2)c1C [Example 379, (S)-4,5-dimethyl-6-(3-(2-phenylmorpholino)-7,8-dihydro-1,6-naphthyridin-6(5H)-yl)pyridazine-3-carbonitrile]
- Emax at 30 µM: 47%
- EC50: 3.6 µM

Compound: Cc1c(C#N)nnc(N2CCc3ncc(N4CCOC(c5ccccn5)C4)cc3C2)c1C (stereo not drawn) [Example 380, 4,5-dimethyl-6-(3-(2-(pyridin-2-yl)morpholino)-7,8-dihydro-1,6-naphthyridin-6(5H)-yl)pyridazine-3-carbonitrile]
- Emax at 30 µM: 63%
- EC50: 2.15 µM
